{
  "source": "paper PMC9037311",
  "about": "(RSC Advances, 2021)",
  "assay": "Pharmacokinetic study after oral administration to rats",
  "assay_type": "in vivo, Sprague-Dawley male rats",
  "data": [
    {"compound": "O=C([O-])Cc1ccccc1Nc1c(Cl)cccc1Cl.[K+]", "note": "[DCFP, Diclofenac potassium]", "values": [
      {"measurement": "AUC(0–t)", "setting": "25 mg kg^−1", "value": "53.99 ± 3.18", "unit": "mg/L/h"},
      {"measurement": "AUC(0–∞)", "setting": "25 mg kg^−1", "value": "59.22 ± 5.23", "unit": "mg/L/h"},
      {"measurement": "Cmax", "setting": "25 mg kg^−1", "value": "15520 ± 1050", "unit": "ng/mL"},
      {"measurement": "blood drug concentration", "setting": "at 10 h", "value": "nearly undetectable"},
      {"measurement": "blood drug concentration", "setting": "within 1 h", "value": "not detectable"}
    ]}
  ]
}
